{"source": "paper PMC6260619", "about": "“Selective Cytotoxicity of Goniothalamin against Hepatoblastoma HepG2 Cells” (Molecules, 2011)", "format_in_all_cases": "cell-based, human", "key": {"HepG2 cells [1]": {"system": "HepG2 cells", "test": "MTT cytotoxicity assay, HepG2", "conditions": "Homo sapiens, read-out: IC50 from MTT", "method": "(§1) HepG2 and Chang cells were plated at 1 × 10^4 cells/well by adding 200 μL of a 5 × 10^4 cells/mL suspension to each well of a 96-well tissue culture plate. The plate was incubated for a sufficient time to assure attachment and 40% to 60% confluency. […] The last row was left as an untreated control. The plates were incubated at 37 °C, 5% CO2, for 24, 48 and 72 hours, respectively. After incubation with compounds, the media was aspirated off and replaced with fresh media. Then, MTT solution (20 μL) for a total volume of 200 μL was added in every well and incubated for 4 to 6 hours at 37 °C with 5% CO2. After that, MTT-containing medium was removed gently and replaced with DMSO (200 μL per well) to mix the formazan crystals until dissolved. The plates were read on microtiter plate reader at 570 nm. For each compound tested, the IC50 (concentration of drug needed to inhibit cell growth by 50%) is generated from the dose-response curves for each cell line."}, "Chang cells [2]": {"system": "Chang cells", "test": "MTT cytotoxicity assay, Chang", "conditions": "Homo sapiens, read-out: IC50 from MTT", "method": "as §1"}, "HepG2 cells [3]": {"system": "HepG2 cells", "test": "Cell cycle PI analysis by flow cytometry, HepG2", "method": "The ability of a substance to affect specific phases of the cell cycle may provide clues as to its mechanism(s) of action. To determine the effects of goniothalamin on the cell cycle, HepG2 cells were treated with IC50 levels of goniothalamin (determined from the MTT assay) for 24, 48 and 72 hours, respectively. The cells were stained with PI and the DNA contents analyzed by flow cytometry.\n(§2) The treated cells were trypsinized and washed with PBS. After centrifugation, the supernatant was removed. Then, 1 × 10^6 cells were harvested and fixed in ice-cold ethanol (70%). The fixed cells were centrifuged at high speed (180 × g) for 10 minutes to adequately pellet down the cells that were suspended in the ethanol. The pellet was washed by the ice-cold PBS and then centrifuged again at 180 × g for 10 minutes. The final pellet was resuspended with 1 mL of RNase and incubated at 37 °C for 30 minutes. At the end of incubation, DNA binding dye PI (1 mg/mL) was added to give a final concentration of 50 µg/mL. The mixture was incubated at room temperature for 10 min in the dark. Data acquisition and analysis were performed in by flow cytometry FACS Calibur flow cytometer (Becton Dickinson, Franklin Lakes, NJ, USA) using CellQuest 3.3 software."}, "Chang cells [4]": {"system": "Chang cells", "test": "Cell cycle PI analysis by flow cytometry, Chang", "method": "The effect of goniothalamin on the cell cycle distribution of non-malignant Chang cells was also assessed. […] Accordingly, goniothalamin induced a marked apoptosis in a time-dependent manner at IC50 concentrations. As expected, the increase in the apoptotic population was associated with a concomitant enlargement of the pre-phase population, as observed in cell cycle analysis.\nas §2"}, "[5]": {"conditions": "HepG2, 24h, at IC50 (goniothalamin 9.2 µM; doxorubicin 2.2 µM)"}, "[6]": {"conditions": "HepG2, 48h, at IC50 (goniothalamin 8.3 µM; doxorubicin 4.3 µM)"}, "[7]": {"conditions": "HepG2, 72h, at IC50 (goniothalamin 4.6 µM; doxorubicin […])"}, "[8]": {"conditions": "24h, at IC50 (goniothalamin 79.10 µM; doxorubicin 0.83 µM)"}, "[9]": {"conditions": "48h, at IC50 (goniothalamin 63.75 µM; doxorubicin 0.41 µM)"}, "[10]": {"conditions": "72h, at IC50 (goniothalamin 35.01 µM; doxorubicin 0.28 µM)"}}, "note": "pIC50: −log10 of the molar value. Read-outs that look alike come from different tables or passages of the source.", "data": [{"smiles": "COc1cccc2c1C(=O)c1c(O)c3c(c(O)c1C2=O)C[C@@](O)(C(=O)CO)C[C@@H]3O[C@H]1C[C@H](N)[C@H](O)[C@H](C)O1", "note": "[Doxorubicin, reference compound]", "values": [{"measurement": "pIC50", "setting": "HepG2 cells [1]; HepG2, 24 h", "value": 5.66}, {"measurement": "pIC50", "setting": "HepG2 cells [1]; HepG2, 48 h", "value": 5.37}, {"measurement": "pIC50", "setting": "HepG2 cells [1]; HepG2, 72 h", "value": 5.97}, {"measurement": "pIC50", "setting": "Chang cells [2]; 24 h", "value": 6.08}, {"measurement": "pIC50", "setting": "Chang cells [2]; 48 h", "value": 6.39}, {"measurement": "pIC50", "setting": "Chang cells [2]; 72 h", "value": 6.55}, {"measurement": "G0/G1", "setting": "HepG2 cells [3]; [5]", "value": "76.46 ± 3.80", "unit": "%"}, {"measurement": "G2+M", "setting": "HepG2 cells [3]; [5]", "value": "11.64 ± 3.02", "unit": "%"}, {"measurement": "S", "setting": "HepG2 cells [3]; [5]", "value": "8.54 ± 0.38", "unit": "%"}, {"measurement": "SubG0/G1", "setting": "HepG2 cells [3]; [5]", "value": "3.36 ± 1.02", "unit": "%"}, {"measurement": "G0/G1", "setting": "HepG2 cells [3]; [6]", "value": "65.17 ± 12.80", "unit": "%"}, {"measurement": "S", "setting": "HepG2 cells [3]; [6]", "value": "15.15 ± 10.96", "unit": "%"}, {"measurement": "SubG0/G1", "setting": "HepG2 cells [3]; [6]", "value": "5.14 ± 2.53", "unit": "%"}, {"measurement": "G0/G1", "setting": "HepG2 cells [3]; [7]", "value": "60.64 ± 0.79", "unit": "%"}, {"measurement": "G2+M", "setting": "HepG2 cells [3]; [7]", "value": "2.66 ± 0.37", "unit": "%"}, {"measurement": "S", "setting": "HepG2 cells [3]; [7]", "value": "5.91 ± 0.15", "unit": "%"}, {"measurement": "SubG0/G1", "setting": "HepG2 cells [3]; [7]", "value": "30.79 ± 0.57", "unit": "%"}, {"measurement": "G0/G1", "setting": "Chang cells [4]; [8]", "value": "50.84 ± 6.03", "unit": "%"}, {"measurement": "G2+M", "setting": "Chang cells [4]; [8]", "value": "16.36 ± 1.28", "unit": "%"}, {"measurement": "S", "setting": "Chang cells [4]; [8]", "value": "22.09 ± 0.03", "unit": "%"}, {"measurement": "SubG0/G1", "setting": "Chang cells [4]; [8]", "value": "10.71 ± 7.28", "unit": "%"}, {"measurement": "G0/G1", "setting": "Chang cells [4]; [9]", "value": "62.43 ± 9.80", "unit": "%"}, {"measurement": "G2+M", "setting": "Chang cells [4]; [9]", "value": "10.37 ± 0.21", "unit": "%"}, {"measurement": "S", "setting": "Chang cells [4]; [9]", "value": "15.31 ± 3.10", "unit": "%"}, {"measurement": "SubG0/G1", "setting": "Chang cells [4]; [9]", "value": "11.89 ± 6.49", "unit": "%"}, {"measurement": "G0/G1", "setting": "Chang cells [4]; [10]", "value": "54.12 ± 1.52", "unit": "%"}, {"measurement": "G2+M", "setting": "Chang cells [4]; [10]", "value": "8.63 ± 2.17", "unit": "%"}, {"measurement": "S", "setting": "Chang cells [4]; [10]", "value": "15.19 ± 2.83", "unit": "%"}, {"measurement": "SubG0/G1", "setting": "Chang cells [4]; [10]", "value": "22.06 ± 5.17", "unit": "%"}]}]}
